Strand notation (5' to 3'): a small letter for the sugar, then the base; units joined by * are phosphorothioate-linked, units joined directly phosphodiester-linked; [ ] holds rarer units or linkages, { } end groups; capitals alone tell only the bases. e = 2'-O-(2-methoxyethyl) (MOE); [5mC] = 5-methylcytosine; d = 2'-deoxy (DNA)
Tested on: human SMAD7 mRNA
Assay: Antisense inhibition of human SMAD7 mRNA expression in Hep3B cells by 5-10-5 MOE gapmers, single concentration, electroporation, RT-PCR (Example 1, Study 1 and 2)
Type: cell-based
Settings: for % Inhibition of SMAD7 mRNA: electroporation with 15,000 nM antisense oligonucleotide (Study 2); for % Inhibition: Study 2, electroporation with 15,000 nM antisense oligonucleotide
Method in brief: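 Hep3B cells (20,000/well) electroporated with 5-10-5 MOE gapmer at 5,000 nM or 15,000 nM for approximately 24 h. SMAD7 mRNA quantified by real-time PCR with primer probe set RTS5062 and normalized to RIBOGREEN total RNA. Values are percent inhibition relative to untreated controls.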

[1] = 5-10-5 MOE gapmers targeting SEQ ID NO: 1 and 2
[2] = electroporation, 15,000 nM antisense oligonucleotide (Study 2), 5-10-5 MOE gapmers targeting SEQ ID NO: 1 and 2
[3] = electroporation, 5,000 nM, approximately 24 hours, relative to untreated control cells, gapmers targeting SEQ ID NO: 1 and 2
[4] = electroporation, 15,000 nM, approximately 24 hours, relative to untreated control cells, gapmers targeting SEQ ID NO: 1 and 2

Row | Substance | % inhibition of SMAD7 mRNA expression [2] | % Inhibition [1] | further results
1 | 771848 (antisense e[5mC]*e[5mC]*eA*e[5mC]*eA*d[5mC]*dA*dA*d[5mC]*d[5mC]*dA*dA*dA*dG*d[5mC]*eA*eG*eA*eA*eG) [compound 771848] | 36% | – | % Inhibition of SMAD7 mRNA [1]: 47%
2 | 771851 (antisense eG*e[5mC]*eT*eT*eT*dG*dA*dA*dA*dA*d[5mC]*dA*dT*d[5mC]*d[5mC]*e[5mC]*eA*e[5mC]*eT*eT) [compound 771851] | – | 43% | % inhibition of SMAD7 mRNA expression [3]: 25%
3 | 771852 (antisense eA*eG*eA*eT*eT*dT*dA*dA*dA*dA*dT*dT*dA*dA*dA*eA*eA*eG*e[5mC]*eA) [compound 771852] | – | 0% | –
4 | 771853 (antisense eA*eG*e[5mC]*eT*eT*dG*dG*dA*dA*dG*d[5mC]*d[5mC]*dA*dT*d[5mC]*eG*eG*eT*eT*eG) [compound 771853] | – | – | % inhibition of SMAD7 mRNA expression [4]: 36%
5 | 771854 (antisense eT*e[5mC]*e[5mC]*e[5mC]*e[5mC]*dG*d[5mC]*d[5mC]*dT*dT*dT*dT*d[5mC]*dT*dT*e[5mC]*e[5mC]*eT*eG*eG) [compound 771854] | – | 9% | –
6 | 771855 (antisense eT*e[5mC]*e[5mC]*e[5mC]*eG*dA*d[5mC]*dT*dT*dT*dG*d[5mC]*dA*dA*dG*eA*eT*eG*eA*eA) [compound 771855] | – | 38% | –
7 | 771856 (antisense e[5mC]*eT*eG*eA*eA*dA*dG*dA*dA*dA*dG*dT*d[5mC]*d[5mC]*d[5mC]*eG*eA*e[5mC]*eT*eT) [compound 771856] | 34% | – | % Inhibition of SMAD7 mRNA [1]: 35%
8 | 771857 (antisense e[5mC]*eG*eT*e[5mC]*eT*dT*dA*dT*dT*dG*dT*dT*dT*dT*dT*eG*eT*eT*e[5mC]*e[5mC]) [compound 771857] | 29% | – | –
9 | 771858 (antisense e[5mC]*eT*eG*e[5mC]*e[5mC]*dA*dA*d[5mC]*dG*dG*d[5mC]*dA*d[5mC]*dA*dG*eT*e[5mC]*eA*eT*eA) [compound 771858] | 31% | – | –
10 | 771859 (antisense e[5mC]*e[5mC]*eA*eG*eA*dA*dA*dA*dT*dG*d[5mC]*dA*dG*dA*d[5mC]*eA*eG*e[5mC]*eT*eA) [compound 771859] | – | 42% | % inhibition of SMAD7 mRNA expression [3]: 43%
11 | 771860 (antisense e[5mC]*eT*eG*eG*e[5mC]*dT*d[5mC]*dA*dG*dA*dG*dG*d[5mC]*dT*dG*e[5mC]*eA*eG*eT*eG) [compound 771860] | – | 20% | –
12 | 771861 (antisense eA*eG*eA*eA*eA*dA*d[5mC]*dA*dG*d[5mC]*d[5mC]*d[5mC]*d[5mC]*d[5mC]*d[5mC]*e[5mC]*eA*eG*e[5mC]*eA) [compound 771861] | – | – | % inhibition of SMAD7 mRNA expression [4]: 13%
13 | 771862 (antisense eT*e[5mC]*eT*eT*e[5mC]*d[5mC]*d[5mC]*d[5mC]*dA*dG*dA*dA*dA*dA*d[5mC]*eA*eG*e[5mC]*e[5mC]*e[5mC]) [compound 771862] | – | 10% | –
14 | 771863 (antisense e[5mC]*e[5mC]*eA*eG*e[5mC]*d[5mC]*d[5mC]*d[5mC]*d[5mC]*dT*d[5mC]*d[5mC]*dT*dG*dG*eG*eA*e[5mC]*eT*eA) [compound 771863] | – | 9% | –
15 | 771864 (antisense eA*eG*eA*e[5mC]*eA*dA*dA*dG*dA*dT*d[5mC]*dA*d[5mC]*dA*dG*eA*eT*e[5mC]*eA*e[5mC]) [compound 771864] | 0% | – | % Inhibition of SMAD7 mRNA [1]: 27%
16 | 771865 (antisense eA*eT*eA*eG*eG*dG*dA*dT*dA*dT*d[5mC]*dT*d[5mC]*dA*dT*e[5mC]*eA*eA*eT*eA) [compound 771865] | 38% | – | –

Row | Substance | % inhibition of SMAD7 mRNA expression [2] | % Inhibition [1] | further results
17 | 771866 (antisense eG*e[5mC]*eA*eT*eT*dT*dT*dT*d[5mC]*dT*dG*dA*dA*d[5mC]*dA*eG*eA*eG*eT*e[5mC]) [compound 771866] | 34% | – | –
18 | 771867 (antisense eA*e[5mC]*eT*eG*eG*dG*d[5mC]*dT*dT*d[5mC]*dA*dG*d[5mC]*dA*dA*eA*eG*eA*eT*eA) [compound 771867] | – | 19% | % inhibition of SMAD7 mRNA expression [3]: 39%
19 | 771868 (antisense eG*eG*eA*eG*eG*d[5mC]*dA*dA*dA*dT*dT*d[5mC]*dA*dT*dA*eG*eA*e[5mC]*eA*eG) [compound 771868] | – | 16% | –
20 | 771870 (antisense eA*eG*eG*e[5mC]*eA*d[5mC]*dA*dA*dG*dT*d[5mC]*dA*dA*dG*dG*eA*eG*eG*e[5mC]*e[5mC]) [compound 771870] | – | 15% | –
21 | 771871 (antisense e[5mC]*eT*e[5mC]*e[5mC]*e[5mC]*dT*d[5mC]*dT*dG*d[5mC]*d[5mC]*d[5mC]*d[5mC]*dA*dG*eG*eA*eT*eT*e[5mC]) [compound 771871] | – | 15% | –
22 | 771872 (antisense eT*e[5mC]*e[5mC]*e[5mC]*e[5mC]*d[5mC]*dA*d[5mC]*d[5mC]*dG*d[5mC]*dG*d[5mC]*dA*dG*eG*eG*eA*e[5mC]*eA) [compound 771872] | 0% | – | % Inhibition of SMAD7 mRNA [1]: 11%
23 | 771873 (antisense eA*eG*e[5mC]*eT*eG*d[5mC]*dT*dG*dT*d[5mC]*dA*d[5mC]*dA*dA*dG*eG*e[5mC]*e[5mC]*e[5mC]*eT) [compound 771873] | 31% | – | –
24 | 771874 (antisense eA*eT*eT*eA*e[5mC]*dT*dT*d[5mC]*dT*dG*dT*d[5mC]*dT*dG*d[5mC]*e[5mC]*eT*e[5mC]*e[5mC]*eG) [compound 771874] | 34% | – | –
25 | 771875 (antisense e[5mC]*e[5mC]*e[5mC]*e[5mC]*eG*dT*dG*d[5mC]*dA*d[5mC]*dT*d[5mC]*d[5mC]*d[5mC]*dA*eG*e[5mC]*e[5mC]*e[5mC]*eT) [compound 771875] | – | 51% | % inhibition of SMAD7 mRNA expression [3]: 42%
26 | 771876 (antisense e[5mC]*eG*eA*eG*e[5mC]*dT*d[5mC]*d[5mC]*d[5mC]*dT*d[5mC]*d[5mC]*d[5mC]*dT*dG*eG*e[5mC]*e[5mC]*e[5mC]*e[5mC]) [compound 771876] | – | 0% | –
27 | 771877 (antisense eT*eG*e[5mC]*eA*eG*dG*dA*dT*d[5mC]*d[5mC]*dG*dA*dT*dG*dG*eA*eA*eA*eA*eG) [compound 771877] | – | – | % inhibition of SMAD7 mRNA expression [4]: 24%
28 | 771878 (antisense e[5mC]*eA*eG*eT*eT*dT*d[5mC]*dT*dA*dG*dA*dG*dG*dG*dT*eA*eG*eG*eA*eA) [compound 771878] | – | 22% | –
29 | 771879 (antisense eA*eG*eG*eA*e[5mC]*d[5mC]*d[5mC]*dA*dA*dA*dG*dG*d[5mC]*dA*dG*eA*e[5mC]*e[5mC]*e[5mC]*eT) [compound 771879] | – | 23% | –
30 | 771880 (antisense eT*e[5mC]*e[5mC]*e[5mC]*eT*dG*dG*dT*dT*dT*dT*dG*d[5mC]*dA*dG*eG*eT*eG*eG*eT) [compound 771880] | 29% | – | % Inhibition of SMAD7 mRNA [1]: 41%
31 | 771881 (antisense eA*eT*eT*eT*eT*d[5mC]*d[5mC]*dA*dA*dA*dA*dG*dG*dA*d[5mC]*eA*eA*eA*eA*e[5mC]) [compound 771881] | 0% | – | –
32 | 771882 (antisense eG*e[5mC]*eA*eT*e[5mC]*dA*dT*dG*dA*dA*dA*dA*dT*d[5mC]*dT*eT*eA*eA*eT*eA) [compound 771882] | 35% | – | –

Source: patent US10517889B2, “Modulators of SMAD7 expression” (Ionis Pharmaceuticals, Inc., priority 2017, dated 2019)
